Data as given in patent US9884813B1, “Pharmaceutically acceptable salts of B-guanidinopropionic acid with improved properties and uses thereof” (Rgenix, Inc., priority 2017, dated 2018).
Values joined by “and” are separate entries in the source; they are usually repeats but may differ in a detail not shown here. Equal values may be shown once. “Also recorded” adds a separate entry of the source. Blank lines part the entries; values can stand above or below the compound they belong to.

What was measured:
[1] = Dynamic vapor sorption (DVS) with XRPD of the post-DVS sample; type: physicochemical; conditions: for solid form by XRPD after the DVS experiment: post DVS sample
Description: Samples were analyzed using an Aquadyne DVS-2 gravimetric water sorption analyzer. The relative humidity was adjusted between 2-95% and the weight of the sample was continuously monitored and recorded.
[…]: β-GPA maleate (1:1) Form II, β-GPA fumarate (1:1), β-GPA maleate (2:1), β-GPA succinate (2:1) and β-GPA oxalate (1:1) were analyzed by DVS experiment followed by XRPD analysis of the sample at the end of the experiment.
Sample 2162-64-1 was analyzed by DVS in triplicate and the post DVS samples were characterized by XRPD to identify the form at the end of the experiment.

[2] = Solid form stability of salts in different solvents (slurry, XRPD); type: physicochemical; conditions: water, 6 hours, room temperature
[3] = Compression profile evaluation (tabletability); type: physicochemical
Description: Compression profiling was also performed on both the free base and the salt form of the API. A standard formulation containing plastic diluent, brittle diluent, disintegrant and lubricant was evaluated at a loading of 25% and 50% API. The diluent level was adjusted accordingly, but the ratio of plastic to brittle filler was set a 1:1. It was decided to use a representative tablet formulation to perform compression profiling to mitigate the cohesion and sticking issues seen in the free base and the salt form during the roller compaction feasibility evaluation. Table 37 details the formulation compositions tested.
These blends were then compressed into 100 mg compacts using 0.25-inch flat faced tooling at increasing compaction pressures. A total of N=3 compacts were produced at each compaction pressure and were measured for weight, thickness and hardness. The compression stresses used were calculated by dividing the force applied to the compact by the surface area of the 0.25 in flat faced tooling. The tensile strength of the compacts was calculated using the equations derived for flat faced tablets. For each formulation, a tabletability (tensile strength vs. compression pressure) was generated. For the purposes of this study the tabletability profile was examined to determine the compaction pressure required in order to produce a tablet of acceptable tensile strength. Historically a tablet with a tensile strength of 2.0 Mpa is sufficient to both withstand friability and to not impact disintegration and dissolution.

Bulk and tapped density = type: physicochemical
Description: The bulk density of β-GPA oxalate (Pattern 18 B), succinate (Pattern 15A), and fumarate (Pattern 7A) were determined by pouring in a known amount of salt (g) into a measuring cylinder. The volume (Vi) occupied by the salt was recorded and the bulk density (ρB) was determined using equation 1. ρB=g/Vi (1)
The tapped densities of the salts were determined using a Tap density analyzer. A known amount of salt was poured (g) into a measuring cylinder and the initial volume was recorded and tapped using a Tap density analyzer. The final volume (Vf) after tapping was recorded and the tapped density (ρT) was calculated by using equation 2. ρT=g/Vf (2)

[4] = Roller compaction feasibility (slugs, capsule fill)
Description: Roller compaction feasibility was performed by producing slugs using a single station hand press then carefully hand milling those slugs so that all granules were small enough to pass through a size US 18 mesh. These granules were then filled into size 0 capsules by both the free flow and tamp method. A total of N=5 capsules were filled for each lot for each method. The average net fill weight results are given below in […]. The same issue was not seen when compressing the succinate salt form of β-GPA. Slugs produced around 1500 PSI produced slugs hard enough to be tested for hardness. The resulting slug parameters can be seen in Table 33.

[5] = Flowability measurement using Hanson Flodex unit; type: physicochemical; conditions: for flow character from the experimental data: summary of density and Flodex measurements
Text: Method: A cylindrical vessel is secured to the stand and above that a funnel is also secured such that the bottom of the funnel is close to the vessel. A powder load of ≈50-60 g is then poured through the funnel into the middle of the cylinder. The lever device is pulled to open the hole in the disk quickly and without vibration. If a powder slowly flows through the small-diameter holes, leaving a cavity shaped like an upside-down, truncated cone, the test is considered positive. If a powder flocculates in bulk and falls abruptly, forming a cylindrical cavity, the test is considered negative. […] If the experiment is negative, the powder is tested again with a disk having a larger hole.

[6] = Solid form stability at 40° C. and 75% humidity; type: physicochemical; conditions: for solid form stability (XRPD): 40° C. and 75% RH for seven days
Description: Solid form stability studies of β-GPA fumarate, succinate, and oxalate were carried out at 40° C. and 75% RH for seven days. Around 30 mg of the salts were placed in 4 mL vials which were placed in a saturated solution of sodium chloride (2 mL) with lids closed at 40° C. […]

[7] = Carr's index and Hausner ratio (predicted flowability); type: physicochemical; conditions: for Carr's index / Hausner ratio: calculated from bulk and tapped volumes; for Flow character: scale of Table 6 (Carr's index)
Text: The flow properties of β-GPA are sub-optimal. The bulk density is 0.389 g/cc and the tapped density is 0.627 g/cc. These measurements can be used to calculate the Carr's index and Hausner ratio for a substance. The Carr's index and Hausner ratio are indicators of flowability of a powder. As known in the art, e.g., as described in Carr R. L. Chem. Eng. 1965, 72, 163-168, the relationship to flowability of a powder to the Carr's index and Hausner ratio is based on the scale shown in Table 6 below.
Carr's index or Carr's compressibility index (C) is an indication of the compressibility of a powder. It can be calculated using the equation below: Carr's index (C)=100(Vi−Vf)/Vi (3) A Carr's index greater than 25 is considered to be an indication of poor flowability while a value below 15 is an indication of good flowability.
The Hausner ratio is a number that is correlated to the flowability of a powder or granular material. It is calculated by using the equation below: Hausner ratio=Vi/Vf (4)

[8] = Solid form stability under stressed conditions (wet, dry, high humidity) by XRPD; type: physicochemical
Description: The solid form stability of each salt was studied by XRPD under stressed conditions: wet, dry (45° C. under vacuum) and high humidity (RH >95%).

[9] = Solid form stability of salts in different solvents (slurry, XRPD); type: physicochemical; conditions: 48 hours, room temperature
Description: Three salts were studied for solid form stability in water (disproportionation test), methanol, acetonitrile, and acetone:water (9:1) for 48 hours at room temperature.

[10] = Carr's index and Hausner ratio (predicted flowability); type: physicochemical; conditions: Table 18, scale of Table 17
[11] = Dynamic vapor sorption (DVS) with XRPD of the post-DVS sample; type: physicochemical; conditions: relative humidity between 0-95 percent
[12] = Experiments on lyophilized 2:1 fumarate polymorph (Pattern 7C); type: physicochemical
Description: 1 g of 2:1 β-GPA fumarate was dissolved in 10 mL of water at 50° C. in a round bottom flask. The round bottom flask was placed in the dry ice/acetone cooling bath (−78° C.) until the sample solidified followed by lyophilization for 48 hours. A white solid was obtained which was analyzed by XRPD, DSC and ^1H-NMR. Sample ID: 2162-84-1.
To confirm the above hypothesis the following experiments (Table 25) were performed on the lyophilized sample (Pattern 7C): […]

[13] = Average of 5 slugs, average Compression Force 1600.00 PSI (28.67 MPa)
[14] = slug, Compression Force 1500 PSI, Compression Stress 27 MPa, listed as β-Guanidinopropionic Acid Succinate Salt
[15] = slug, Compression Force 2000 PSI, Compression Stress 36 MPa

solid form by XRPD after the DVS experiment [1]: retained their XRPD
solid form by XRPD after the DVS experiment ([1]; listed as 2:1 succinate salt): no form change
solid form by XRPD after the DVS experiment ([1]; listed as 2:1 β-GPA succinate): no form change
XRPD pattern after slurry [2]: two peaks from β-GPA
XRPD pattern after slurry ([2]; listed as 2:1 β-GPA succinate): started showing up peaks from β-GPA
compaction force required to produce a tablet of 2.0 Mpa tensile strength ([3]; 25% API loading formulation): 22.7 kN
compression stress (compaction pressure) required to produce a tablet of 2.0 Mpa tensile strength ([3]; 25% API loading formulation): 150 Mpa
compaction force required to produce a tablet of 2.0 Mpa tensile strength ([3]; 50% API loading formulation): ~34.8 kN
compression stress (compaction pressure) required to produce a tablet of 2.0 Mpa tensile strength ([3]; 50% API loading formulation): ~230 Mpa
Bulk density (Bulk and tapped density): 0.405 g/cc
Tapped density (Bulk and tapped density): 0.472 g/cc
Calculated Solid Fraction [4, 13]: 0.80
Tablet Hardness [4, 13]: 4.86 kp
Tensile Strength [4, 13]: 0.34 MPa
Calculated Solid Fraction ([4]; slug, Compression Force 1500 PSI, Compression Stress 27 MPa): 0.79
Tablet Hardness [4, 14]: 5.1 kp and 3.7 kp and 4.4 kp and 4.3 kp
Calculated Solid Fraction [4, 15]: 0.85
Tablet Hardness [4, 15]: 6.8 kp
Tensile Strength [4, 15]: 0.50 MPa
Did solid pass? ([5]; Disc pore size 5 mm): No
Did solid pass? ([5]; Disc pore size 6 mm): No
Did solid pass? ([5]; Disc pore size 7 mm): Yes
Did solid pass? ([5]; Disc pore size 8 mm): Yes
Did solid pass? ([5]; Disc pore size 10 mm): Yes
Did solid pass? ([5]; Disc pore size 18 mm): Yes
Did solid pass? ([5]; Disc pore size 20 mm): Yes
Did solid pass? ([5]; Disc pore size 22 mm): Yes
Did solid pass? ([5]; Disc pore size 24 mm): Yes
flow character from the experimental data [5]: good
solid form stability (XRPD) ([6]; listed as 2:1 succinate salt): stable
Carr's index [7]: 14.3
Hausner ratio [7]: 1.167
Flow character ([7]; predicted): Good (11-15)
Dry_XRPD pattern ([8]; dry (45° C. under vacuum)): Pattern 15A
stability in dry conditions ([8]; dry conditions): stable
Humid_XRPD pattern ([8]; high humidity (RH >95%)): Pattern 15A
stability under high humidity conditions ([8]; high humidity conditions): stable
Wet_XRPD pattern ([8]; wet): Pattern 15A
XRPD pattern after slurry ([9]; acetone:water (9:1)): presence of β-GPA
XRPD pattern after slurry ([9]; acetonitrile): retain its original form
XRPD pattern after slurry ([9]; acetonitrile, listed as 2:1 β-GPA succinate): retain its XRPD pattern
XRPD pattern after slurry ([9]; methanol): retain its original form
XRPD pattern after slurry ([9]; methanol, listed as 2:1 β-GPA succinate): retain its XRPD pattern
Flow character [10]: Good (11-15)
Structure (SMILES): N=C(N)NCCC(=O)O.N=C(N)NCCC(=O)O.O=C(O)CCC(=O)O [β-GPA succinate (2:1)]
Tensile Strength [4, 14]: 0.35 MPa and 0.25 MPa and 0.30 MPa and 0.29 MPa
solid form stability (XRPD) [6]: retained their original XRPD pattern; also recorded: stable

water uptake ([1]; 80% humidity at 25° C.): ~0.3%
solid form by XRPD after the DVS experiment [1]: No change in the solid form
compression stress (compaction pressure) required to produce a tablet of 2.0 Mpa tensile strength ([3]; 25% API loading formulation): roughly 235 Mpa
Bulk density (Bulk and tapped density): 0.389 g/cc
Tapped density (Bulk and tapped density): 0.627 g/cc
calculated solid fraction of slugs ([4]; slugs produced using up to 2000 psi): 74%
moisture absorbed and desorbed [11]: around 0.1%
Did solid pass? ([5]; Disc pore size 18 mm): No
Did solid pass? ([5]; Disc pore size 20 mm): No
Did solid pass? ([5]; Disc pore size 28 mm): No
Did solid pass? ([5]; Disc pore size 30 mm): No
Did solid pass? ([5]; Disc pore size 34 mm): Yes
flow character from the experimental data [5]: poor
degradation ([6]; 40° C. at 75% humidity after 4 weeks): No degradation was observed
Carr's index [7]: 37.9
Hausner ratio [7]: 1.610
Flow character ([7]; predicted): Very poor (32-37)
Flow character by Hausner ratio ([7]; predicted, scale of Table 6 (Hausner ratio)): Very very poor (>1.60)
Flow character [10]: Very very poor (>38)
Structure (SMILES): N=C(N)NCCC(=O)O [β-GPA, β-Guanidinopropionic acid, reference compound]
compression stress (compaction pressure) required to produce a tablet of 2.0 Mpa tensile strength ([3]; 50% API loading formulation): incapable of reaching a tablet with 2.0 Mpa

stability of the polymorph [12]: unstable
Structure (SMILES): N=C(N)NCCC(=O)O.N=C(N)NCCC(=O)O.O=C(O)/C=C/C(=O)O [Pattern 7C]
